Reference: the OligoGym collection
These antisense oligonucleotides have a phosphorothioate backbone; sugars and methylation of C are not fully specified.

biological target: PCK2; conditions: ASO
Further: test concentration or dose not given here.

| Sequence | remaining target (mRNA or protein) (fraction of control) |
| --- | --- |
| TCGGATGAGGCCCTGCTGCT | 0.86 |
| TGAGGCCGCTGAGATCCAAG | 0.67 |
| TGATCTCCCGCTGGTCGGGC | 0.73 |
| TGCCTTCCCTATTCCCAGAT | 0.82 |
| TGCGGCCATGGCACCTGGGC | 0.55 |
| TGGGTGTCTCTCGGGCACTG | 0.9 |
| TTAAAATAGATAAGCATCTC | ≥ 1 |
| TTGCACGGCCACTGGCTCAC | 0.94 |
| TTTCCAGGGTTTGCCCAGCC | 0.55 |

biological target: SMAD2; conditions: ASO

| Sequence | remaining target (mRNA or protein) (fraction of control) |
| --- | --- |
| AAACAGCCTCTTGTATCG | 0.29 |
| AAACTTCCCCACCTATGT | 0.18 |
| AAAGCCATCTACAGTGAG | 0.34 |
| AAGTGCTTGGTATGGTAA | 0.43 |
| AATGCTATGACAGAAGAG | 0.76 |
| ACAGATTCCACAAGGTGC | 0.22 |
| ACTGTAGAGGTCCATTCA | 0.42 |
| AGATTACAGCCTGGTGGA | 0.57 |
| AGCTGCTTCTCCGCCGCC | 0.27 |
| CACCCTTTCACAAAACTC | 0.15 |
| CAGGTTCTGAGTAAGTAA | 0.54 |
| CCTTCTTGTCATTTCTAC | 0.57 |
| CGTGAATGGCAAGATGGA | 0.47 |
| CTAATCGTCCTGTTTTCT | 0.33 |
| CTCACACCACTTTTCTTC | 0.1 |
| CTCTCCTCCGCCTGCTCC | 0.01 |
| CTCTTCACAACTGGCGGC | 0.16 |
| CTGAGCCAGAAGAGCAGC | 0.18 |
| CTTCACCAGACTTTTCAC | 0.15 |
| CTTCCATCCCAGCAGTCT | 0.1 |

| Sequence | remaining target (mRNA or protein) (fraction of control) |
| --- | --- |
| GAGACCTGGTTTGTTCAG | 0.46 |
| GAGAGCCTGTGTCCATAC | 0.29 |
| GAGGTGGCGTTTCTGGAA | 0.29 |
| GAGTGGTGATGGCTTTCT | 0.4 |
| GATAGTAAACAGTCCATA | 0.5 |
| GCGGAAGTTCTGTTAGGA | 0.43 |
| GGAAAGAGTAGTAGGAGA | 0.48 |
| GGCAAAACTGGTGTCTCA | 0.26 |
| GGTAACACATTTAGTATT | 0.48 |
| GTTTCTCCAACCCTCTGA | 0.2 |
| TAAACCTAAGCAGAACCT | 0.37 |
| TAACATTGGAGAGTAAAC | 0.54 |
| TATTACAGTTTTGAGTGG | 0.52 |
| TCACTGCTTTCTCACACC | 0.08 |
| TCTCTGATAGTGGTAAGG | 0.49 |
| TGCTCCTCCAGACCCACC | 0.01 |
| TGTTGGTCACTTGTTTCT | 0.58 |
| TTAGTGTTTTCTGGAATG | 0.48 |
| TTCCTGCCCATTCTGCTC | 0.08 |
| TTCGATGGGATACCTGGA | 0.99 |

biological target: ITGB3; conditions: ASO

| Sequence | remaining target (mRNA or protein) (fraction of control) |
| --- | --- |
| AAAGGCACAGGCAGCTCT | ≥ 1 |
| AAGCGGGTCACCTGGTCA | ≥ 1 |
| AAGGTAGACGTGGCCTCT | 0.71 |
| ACACACACATAAACACAC | ≥ 1 |
| ACATACTGACATTCTCCC | ≥ 1 |
| ACCACATACAGGATGGAC | ≥ 1 |
| ACGACACAGTCATCCTCA | ≥ 1 |
| ACTCACTGGGAACTCGAT | 0.66 |
| AGAAGTCGTCACACTCGC | 0.72 |
| AGACAACTCTTCAGGGAG | 0.62 |

biological target: MAP2K6; conditions: ASO

| Sequence | remaining target (mRNA or protein) (fraction of control) |
| --- | --- |
| AAGAGAGGATTCAGGGAAGC | ≥ 1 |
| AATTTTAAGGCCAGGGTTTC | ≥ 1 |
| ACACATGGCAGGAGGGACAA | 0.78 |
| AGAAGAAAACAAACAAACAA | 0.82 |
| ATCTGTTCCTTTGGATTCAT | 0.73 |
| CAAGTGTCAGAAGAACCAAA | 0.7 |
| CAGTTCATTCTATACTATAG | 0.7 |
| CATTAGAAGGCTTGACGTCT | 0.67 |
| CATTTTCCCCTTTCCTTTGA | ≥ 1 |
| CCCTAAAAGATGTGGTGATC | ≥ 1 |
| CCTTTCGACTGAGACATTTT | ≥ 1 |
| CGAGAAAGAACTTTTGCTGT | ≥ 1 |
| CGCTGCTGAAGAAAGATGCG | 0.85 |
| CTACAAATCTACTTATAATT | 0.99 |
| CTGAGACATTTTCCCCTTTC | 0.91 |
| CTTCACCCCGAAACCCACCA | 0.34 |
| CTTGCCTTTCGACTGAGACA | 0.58 |
| GAATTTATCTAGTGATGTAT | ≥ 1 |
| GACATTTTCCCCTTTCCTTT | 0.85 |
| GACTGAGACATTTTCCCCTT | 0.88 |

| Sequence | remaining target (mRNA or protein) (fraction of control) |
| --- | --- |
| GAGACATTTTCCCCTTTCCT | 0.66 |
| GATGCATATTAAATAATTTC | 0.83 |
| GCCAGGGCTGGCAGCTAAAA | 0.8 |
| GCCATAAAAGGTGACAGTGA | 0.86 |
| GCTCCAGGTCATCTGCCTTC | 0.65 |
| GGAAATCGAAGGATGGCCAA | ≥ 1 |
| GGTGGGCCGAACCAGAAGCC | ≥ 1 |
| GTGAATTGCCAAATAGACAC | 0.8 |
| GTTTCTCTTGACCGATGCAG | 0.55 |
| GTTTCTGTTCCTGGCTATTT | 0.79 |
| TATCAAAGAATTACTCACTA | 0.85 |
| TATGTAGGCCGTTCTTTGGA | 0.95 |
| TATTTTCCCTGTCAATTACT | 0.99 |
| TCGACTGAGACATTTTCCCC | 0.8 |
| TCTGTAGCTAGTTTTGCAAC | 0.88 |
| TGCCTTTCGACTGAGACATT | 0.67 |
| TTAGTCTCCAAGAATCAGTT | 0.96 |
| TTGGAGTCTAAATCTCTAGG | ≥ 1 |
| TTTCGACTGAGACATTTTCC | ≥ 1 |
| TTTTCCCCTTTCCTTTGATG | ≥ 1 |
